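Where inhibition never reached the appropriate level, the endpoint shown equals the highest concentration tested. Otherwise, values were interpolated linearly from a five-concentration, 48-hour dose response in 96-well plates. GI50 = concentration required for 50% inhibition of growth.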 Calls of active or inactive are those of the source. Cut-off read from the data, not from the text of the source: active = GI50 up to about 1.1 µM and inactive = higher.
How the values were obtained:
Assay in all cases: NCI-60 cell line screen, 48 h
NCI-H23 = test system: NCI-H23
ACHN = test system: ACHN
U-251 = test system: U-251
CAKI-1 = test system: CAKI-1
SNB-78 = test system: SNB-78
SF-539 = test system: SF-539
HT-29 = test system: HT-29
SK-MEL-5 = test system: SK-MEL-5
K562 = test system: K562
KM12 = test system: KM12
DLD-1 = test system: DLD-1
IGROV-1 = test system: IGROV-1
Malme-3M = test system: Malme-3M
MOLT-4 = test system: MOLT-4
SK-OV-3 = test system: SK-OV-3
RXF 393 = test system: RXF 393

Measured: GI50

CC(C)C1CC[C@@H](C)C[C@@]1(O)CC(N)=O (some centres undefined)
inactive: NCI-H23 > 100 µM | ACHN > 100 µM | U-251 > 100 µM | CAKI-1 > 100 µM | SNB-78 > 100 µM | SF-539 > 100 µM | HT-29 > 100 µM | SK-MEL-5 > 100 µM | K562 > 100 µM | KM12 > 100 µM | DLD-1 > 100 µM | IGROV-1 > 100 µM | Malme-3M > 100 µM | MOLT-4 > 100 µM | SK-OV-3 > 100 µM

COc1cc(C(=O)C(CO)Oc2ccccc2OC)ccc1O (centres undefined)
inactive: NCI-H23 > 100 µM | ACHN > 100 µM | U-251 > 100 µM | CAKI-1 > 100 µM | SNB-78 > 100 µM | SF-539 > 100 µM | HT-29 > 100 µM | SK-MEL-5 > 100 µM | K562 42.1 µM | KM12 > 100 µM | DLD-1 > 100 µM | IGROV-1 > 100 µM | Malme-3M > 100 µM | MOLT-4 > 100 µM | SK-OV-3 > 100 µM

C#Cc1c(C)c(/C=C/C(C)=C/C(=O)OC)n(C)c1C
inactive: NCI-H23 > 100 µM | ACHN 43.7 µM | U-251 > 100 µM | CAKI-1 > 100 µM | SNB-78 > 100 µM | SF-539 > 100 µM | HT-29 58.1 µM | K562 24.2 µM | KM12 > 100 µM | DLD-1 79.4 µM | IGROV-1 > 100 µM | Malme-3M > 100 µM | MOLT-4 23.4 µM | SK-OV-3 > 100 µM

CCC1C(C)c2c([nH]c3ccccc23)C2C(=O)N(c3ccccc3)C(=O)C21 (centres undefined)
inactive: NCI-H23 18.6 µM | ACHN 18.2 µM | U-251 14.6 µM | RXF 393 12.7 µM | SNB-78 19.2 µM | SF-539 18.7 µM | HT-29 12.5 µM | SK-MEL-5 15.4 µM | K562 12.6 µM | KM12 15 µM | DLD-1 10.6 µM | IGROV-1 3.67 µM | Malme-3M 16.6 µM | MOLT-4 9.31 µM | SK-OV-3 19.4 µM

COC(=O)C1CC2c3c(c4ccccc4n3C)CC(C1=O)N2C (centres undefined)
inactive: NCI-H23 50.8 µM | ACHN 35.7 µM | U-251 49.8 µM | CAKI-1 43.5 µM | SNB-78 47 µM | SF-539 32.5 µM | HT-29 42.1 µM | SK-MEL-5 25.1 µM | K562 40.1 µM | KM12 37.8 µM | DLD-1 40.9 µM | IGROV-1 52.8 µM | Malme-3M 43.9 µM | MOLT-4 29 µM | SK-OV-3 51.4 µM

CC(C)N1CN(C(C(=O)N[C@@H]2C(=O)N3C2SC(C)(C)C3C(=O)O)c2ccc(O)cc2)CSC1=S (some centres undefined)
inactive: NCI-H23 > 100 µM | ACHN > 100 µM | U-251 > 100 µM | CAKI-1 > 100 µM | SNB-78 > 100 µM | SF-539 > 100 µM | HT-29 > 100 µM | SK-MEL-5 > 100 µM | K562 31.8 µM | KM12 > 100 µM | DLD-1 > 100 µM | IGROV-1 > 100 µM | Malme-3M > 100 µM | MOLT-4 > 100 µM | SK-OV-3 > 100 µM

CC1=NC2(C(=O)O)C3(C(=O)O)N=C(C)OC3(C(F)(F)F)C2(C(F)(F)F)O1 (centres undefined)
inactive: NCI-H23 > 100 µM | ACHN > 100 µM | U-251 > 100 µM | RXF 393 > 100 µM | CAKI-1 > 100 µM | SNB-78 > 100 µM | SF-539 > 100 µM | HT-29 > 100 µM | K562 > 100 µM | KM12 > 100 µM | DLD-1 > 100 µM | IGROV-1 > 100 µM | Malme-3M > 100 µM | MOLT-4 > 100 µM | SK-OV-3 > 100 µM

O=C(CC(=O)N1N=C(n2ccc3ccccc32)CC1c1ccccc1)Nc1ccccc1Cl (centres undefined)
inactive: NCI-H23 > 100 µM | ACHN > 100 µM | U-251 > 100 µM | RXF 393 > 100 µM | SNB-78 > 100 µM | SF-539 > 100 µM | HT-29 > 100 µM | K562 > 100 µM | KM12 > 100 µM | IGROV-1 > 100 µM | Malme-3M > 100 µM | MOLT-4 > 100 µM | SK-OV-3 > 100 µM

CC(C)OP(=O)(OC(C)C)/C(=N/Nc1ccc([N+](=O)[O-])cc1)Nc1ccccc1
inactive: NCI-H23 26.2 µM | ACHN 24.8 µM | U-251 21.2 µM | CAKI-1 34.7 µM | SNB-78 17.5 µM | SF-539 33.9 µM | SK-MEL-5 12.2 µM | K562 21.1 µM | KM12 20.8 µM | DLD-1 28.1 µM | Malme-3M 19.8 µM | MOLT-4 10.7 µM

O=C(NCCCCNc1cccccc1=O)OCc1ccccc1
inactive: NCI-H23 > 100 µM | ACHN > 100 µM | U-251 > 100 µM | CAKI-1 > 100 µM | SNB-78 > 100 µM | HT-29 > 100 µM | SK-MEL-5 48.1 µM | K562 > 100 µM | KM12 > 100 µM | DLD-1 > 100 µM | IGROV-1 > 100 µM | Malme-3M > 100 µM | MOLT-4 > 100 µM | SK-OV-3 > 100 µM

CCOC(=O)c1c(-c2[nH]c(C(=O)OCc3ccccc3)c(C)c2C(=O)OCC)[nH]c(C(=O)OCc2ccccc2)c1C
inactive: ACHN 58.2 µM | U-251 36 µM | RXF 393 19.9 µM | CAKI-1 > 100 µM | SNB-78 67 µM | SF-539 48.4 µM | HT-29 > 100 µM | SK-MEL-5 > 100 µM | DLD-1 > 100 µM | IGROV-1 > 100 µM | Malme-3M > 100 µM | MOLT-4 > 100 µM | SK-OV-3 > 100 µM

O=S1(=O)OCCOS(=O)(=O)C1(Br)Cc1ccccc1
inactive: NCI-H23 > 100 µM | ACHN > 100 µM | U-251 > 100 µM | RXF 393 > 100 µM | SNB-78 > 100 µM | SF-539 > 100 µM | HT-29 > 100 µM | SK-MEL-5 > 100 µM | K562 > 100 µM | DLD-1 > 100 µM | IGROV-1 > 100 µM | Malme-3M > 100 µM | MOLT-4 > 100 µM | SK-OV-3 > 100 µM

CC(=O)C1(O)CC2(c3ccccc3)C(=O)C1(c1ccccc1)C(c1ccccc1)=C2c1ccccc1 (centres undefined)
inactive: NCI-H23 36.6 µM | U-251 81.3 µM | RXF 393 > 100 µM | CAKI-1 > 100 µM | SNB-78 > 100 µM | SF-539 > 100 µM | HT-29 > 100 µM | SK-MEL-5 44 µM | K562 26.1 µM | KM12 > 100 µM | DLD-1 > 100 µM | IGROV-1 > 100 µM | Malme-3M > 100 µM | MOLT-4 39.6 µM | SK-OV-3 > 100 µM

Cc1ccc(NC(=O)C(=O)CC(=O)c2ccccc2)cc1C
inactive: NCI-H23 > 100 µM | ACHN > 100 µM | U-251 > 100 µM | RXF 393 > 100 µM | CAKI-1 56.8 µM | SNB-78 > 100 µM | SF-539 > 100 µM | HT-29 > 100 µM | SK-MEL-5 > 100 µM | KM12 35.8 µM | DLD-1 > 100 µM | IGROV-1 69.8 µM | Malme-3M > 100 µM | SK-OV-3 > 100 µM

Source: ChEMBL document CHEMBL1201862, “PubChem BioAssay data set” (2004)
